The values that follow come from article PMC8535176, “Efficacy of epetraborole against Mycobacterium abscessus is increased with norvaline” (PLoS Pathogens, 2021).

The subject of experiment [1] is T1, Mycobacteroides abscessus subsp. abscessus ATCC 19977.
T1 construct: ATCC 19977
Description: microbe, parasite or virus in culture. The arrangement: species or system M. abscessus; Resazurin microtiter assay (REMA), fluorescence; MIC at 90% growth inhibition from Gompertz fit. The settings on record: ATCC19977, 48 h, rough morphotype. As to the method: (§1) MIC values were determined using the resazurin microtiter assay (REMA). Cultures were grown to log phase (OD600 of 0.4–0.8) and diluted to OD600 of 0.005. Drugs were prepared in two-fold serial dilutions in 96-well plates with 90 μL of bacteria per well to a final volume of 100 μL. Plates were incubated at 37°C until drug-free wells were turbid (2 days for M. abscessus). Ten μL of resazurin (0.025% wt/vol) was added to each well. Once the drug-free wells turned pink (one doubling time), the fluorescence (ex/em 560nm/590nm) was measured using an Infinite F200 Tecan plate reader. Fluorescence intensities were converted to % viable cells relative to drug-free conditions and fit to the Gompertz equation using GraphPad Prism version 9. MIC values at 90% growth inhibition were determined from the nonlinear regression Gompertz equation. Next, we tested the in vitro activity of EPT against a panel of M. abscessus clinical isolates belonging to the three subspecies of the M. abscessus complex (M. abscessus, M. massiliense, and M. bolletii) with smooth and rough colony morphologies and with different drug susceptibility profiles to various antibiotics. There was no loss in activity against clinical isolates (range of 0.014–0.046 μg/mL) nor different morphologies (S2 Table). To determine the spectrum of activity of EPT, we curated a panel of various mycobacteria and representative gram-positive and gram-negative bacteria. […] Mycobacteria strains were grown in rolling [compound left out] culture at 37°C in Middlebrook 7H9 (Difco) supplemented with 10% albumin dextrose catalase (ADC), 0.2% glycerol, and 0.05% Tween 80 (7H9 complete) or on 7H10 agar plates supplemented with 10% oleic acid ADC and 0.5% glycerol at 37°C. When mentioned, the carbon source was modified from glycerol to acetate or the detergent Tween 80 was removed from the media. Bacillus cereus (clinical isolate), Corynebacterium glutamicum (ATCC 13032), Escherichia coli, and Pseudomonas aeruginosa PAO1 were grown in LB broth. HepG2 cells (ATCC HB-8065) were grown in Dulbecco’s modified Eagle’s medium (DMEM) with phenol red (from Gibco) supplemented with 10% fetal bovine serum at 37°C with 5% CO2.

Experiment [2] relates to T2, Mycobacteroides abscessus subsp. abscessus MT16_6490.
T2 construct: MT16_6490
Description: microbe, parasite or virus in culture. The arrangement: species or system M. abscessus; Resazurin microtiter assay (REMA), fluorescence; MIC at 90% growth inhibition from Gompertz fit. The settings on record: 48 h, smooth morphotype. As to the method:
as §1

For experiment [3], the system named is T3, Mycobacteroides abscessus subsp. bolletii Paris 167.
T3 construct: Paris 167
Description: microbe, parasite or virus in culture. The arrangement: species or system M. abscessus; Resazurin microtiter assay (REMA), fluorescence; MIC at 90% growth inhibition from Gompertz fit. The settings on record: 48 h, rough morphotype. On the procedure:
as §1

Experiment [4] has as its system T4, Mycobacteroides abscessus subsp. bolletii AV.
T4 construct: AV
Description: microbe, parasite or virus in culture. As to conditions: 48 h, smooth morphotype. Further details: species or system M. abscessus; Resazurin microtiter assay (REMA), fluorescence; MIC at 90% growth inhibition from Gompertz fit. On the procedure:
as §1

Experiment [5] concerns T5, Mycobacteroides abscessus subsp. massiliense MT15_1748.
T5 construct: MT15_1748
Description: microbe, parasite or virus in culture. Further details: species or system M. abscessus; Resazurin microtiter assay (REMA), fluorescence; MIC at 90% growth inhibition from Gompertz fit. The settings on record: 48 h, rough morphotype. As to the method:
as §1

The test system of experiment [6] is T6, Mycobacteroides abscessus subsp. abscessus MT16_1065.
T6 construct: MT16_1065
Description: microbe, parasite or virus in culture. The settings on record: 48 h, smooth morphotype. The arrangement: species or system M. abscessus; Resazurin microtiter assay (REMA), fluorescence; MIC at 90% growth inhibition from Gompertz fit. On the procedure: as §1

The subject of experiment [7] is T7, Mycobacteroides abscessus subsp. massiliense MT15_1749.
T7 construct: MT15_1749
Description: microbe, parasite or virus in culture. The arrangement: species or system M. abscessus; Resazurin microtiter assay (REMA), fluorescence; MIC at 90% growth inhibition from Gompertz fit. As to conditions: 48 h, rough morphotype. On the procedure: as §1

A further experiment has as its system M. avium hominissuis. Description: microbe, parasite or virus in culture. Further details: Whole-cell growth inhibition, dose-response MIC (MIC90) by resazurin microtiter assay (REMA), fluorescence read-out. The settings on record: Mycobacterium avium.
The subject of the next experiment is T8, M. tuberculosis Erdman.
T8 construct: Erdman
Description: microbe, parasite or virus in culture. Further details: Whole-cell growth inhibition, dose-response MIC (MIC90) by resazurin microtiter assay (REMA), fluorescence read-out. The settings on record: Mycobacterium tuberculosis, ERDMAN.

The subject of another experiment is C. glutamicum. Description: microbe, parasite or virus in culture. Further details: Whole-cell growth inhibition, dose-response MIC (MIC90) by resazurin microtiter assay (REMA), fluorescence read-out. The settings on record: Corynebacterium glutamicum.
For another experiment, the system named is P. aeruginosa. Description: microbe, parasite or virus in culture. As to conditions: Pseudomonas aeruginosa. Further details: Whole-cell growth inhibition, dose-response MIC (MIC90) by resazurin microtiter assay (REMA), fluorescence read-out.
For a further experiment, the system named is E. coli. Description: microbe, parasite or virus in culture. The arrangement: Whole-cell growth inhibition, dose-response MIC (MIC90) by resazurin microtiter assay (REMA), fluorescence read-out. The settings on record: Escherichia coli.
The next experiment has as its system B. cereus. Description: microbe, parasite or virus in culture. As to conditions: Bacillus cereus. The arrangement: Whole-cell growth inhibition, dose-response MIC (MIC90) by resazurin microtiter assay (REMA), fluorescence read-out.
In another experiment the test system is M. avium intracellulaire. Description: microbe, parasite or virus in culture. Further details: Whole-cell growth inhibition, dose-response MIC (MIC90) by resazurin microtiter assay (REMA), fluorescence read-out. As to conditions: Mycobacterium avium.
The test system of another experiment is T9, M. tuberculosis H37Rv.
T9 construct: H37Rv
Description: microbe, parasite or virus in culture. The arrangement: Whole-cell growth inhibition, dose-response MIC (MIC90) by resazurin microtiter assay (REMA), fluorescence read-out. The settings on record: Mycobacterium tuberculosis, H37RV.

A further experiment deals with M. abscessus. Description: microbe, parasite or virus in culture. Further details: Whole-cell growth inhibition, dose-response MIC (MIC90) by resazurin microtiter assay (REMA), fluorescence read-out. The settings on record: Mycobacteroides abscessus.
Experiment [8] deals with T10, M. abscessus LeuRS editing domain (LeuRSMabs; pMabsED) (Mycobacteroides abscessus, UniProt B1MMK6).
T10 construct: gene leuS; editing domain, residues 303-499 (text on crystals prints 303-498); N-terminal His tag with TEV site, removed; synthetic codon-optimised gene, pET24a(+), E. coli BL21(DE3)
T10 sequence (B1MMK6 303-499): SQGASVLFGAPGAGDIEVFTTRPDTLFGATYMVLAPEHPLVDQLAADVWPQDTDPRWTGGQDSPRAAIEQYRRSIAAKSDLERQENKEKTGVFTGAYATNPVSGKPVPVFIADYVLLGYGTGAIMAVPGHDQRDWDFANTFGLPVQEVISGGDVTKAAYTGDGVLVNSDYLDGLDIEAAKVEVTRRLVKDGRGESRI
Description: isothermal titration calorimetry. The experiment is classed as binding. From the text:
isothermal titration calorimetry on M. abscessus LeuRS editing domain (LeuRSMabs; pMabsED)

Experiment [9] has as its target T11, M. tuberculosis LeuRS editing domain (LeuRSMtb; pMtbED) (Mycobacterium tuberculosis, UniProt P9WFV1).
T11 construct: gene leuS
Description: isothermal titration calorimetry. The experiment is classed as binding. An excerpt: isothermal titration calorimetry on M. tuberculosis LeuRS editing domain (LeuRSMtb; pMtbED)

The structures appear in SMILES notation. In brackets after ≈: the same amount, converted by molar mass. Like-named read-outs stand apart in the source and are kept apart here. A value given as a limit tells only on which side of the number the result lay.

T11 sequence (P9WFV1 311-512 limits assumed): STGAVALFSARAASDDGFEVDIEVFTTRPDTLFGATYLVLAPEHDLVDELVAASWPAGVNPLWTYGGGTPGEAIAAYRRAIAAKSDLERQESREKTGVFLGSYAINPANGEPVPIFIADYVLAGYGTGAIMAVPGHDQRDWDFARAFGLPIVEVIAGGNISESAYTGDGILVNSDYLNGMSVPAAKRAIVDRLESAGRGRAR

As to `CC[C@H]1OC(=O)[C@H](C)[C@@H](O[C@H]2C[C@@](C)(OC)[C@@H](O)[C@H](C)O2)[C@H](C)[C@@H](O[C@@H]2O[C@H](C)C[C@H](N(C)C)[C@H]2O)[C@](C)(OC)C[C@@H](C)C(=O)[C@H](C)[C@@H](O)[C@]1(C)O` [Clarithromycin], the MIC came to 0.65 µg/mL (≈ 0.869 µM) in experiment [1] (read-out: MIC CLR); 2.9 µg/mL (≈ 3.88 µM) in experiment [2] (read-out: MIC CLR); 2.8 µg/mL (≈ 3.74 µM) in [3] (read-out: MIC CLR); 0.15 µg/mL (≈ 0.201 µM) in [4] (read-out: MIC CLR); 0.068 µg/mL (≈ 0.0909 µM) in experiment [5] (read-out: MIC CLR); 3.4 µg/mL (≈ 4.55 µM) in experiment [6] (read-out: MIC CLR). Further, the MIC was 0.082 µg/mL (≈ 0.11 µM) in experiment [7] (read-out: MIC CLR); 0.18 µg/mL (≈ 0.241 µM) with M. avium hominissuis (read-out: MIC (µg/mL) / CLR); above 1.3 µg/mL in the experiment with M. tuberculosis Erdman (read-out: MIC (µg/mL) / CLR); above 8.2 µg/mL with C. glutamicum (read-out: MIC (µg/mL) / CLR); above 8.2 µg/mL in the experiment on P. aeruginosa (read-out: MIC (µg/mL) / CLR); above 8.2 µg/mL in the experiment on E. coli (read-out: MIC (µg/mL) / CLR). In addition, the MIC with B. cereus (read-out: MIC (µg/mL) / CLR) is above 8.2 µg/mL; in the experiment on M. avium intracellulaire (read-out: MIC (µg/mL) / CLR), 0.014 µg/mL (≈ 0.0187 µM); in the experiment on M. tuberculosis H37Rv (read-out: MIC (µg/mL) / CLR), above 1.3 µg/mL; in the experiment with M. abscessus (read-out: MIC (µg/mL) / CLR), 0.9 µg/mL (≈ 1.2 µM).
On to `NC[C@H]1OB(O)c2c(OCCCO)cccc21` [epetraborole], for which the figures for the Kd in experiment [8] and in experiment [9] were 16 ± 4 µM and 10 ± 4 µM, respectively. Also, the MIC stood at 0.11 µg/mL (≈ 0.464 µM) in [1] (read-out: MIC EPT); 0.03 µg/mL (≈ 0.127 µM) in experiment [2] (read-out: MIC EPT); 0.027 µg/mL (≈ 0.114 µM) in [3] (read-out: MIC EPT); 0.046 µg/mL (≈ 0.194 µM) in experiment [4] (read-out: MIC EPT); 0.022 µg/mL (≈ 0.0928 µM) in experiment [5] (read-out: MIC EPT); 0.041 µg/mL (≈ 0.173 µM) in [6] (read-out: MIC EPT). Moreover, the MIC in [7] (read-out: MIC EPT) is 0.014 µg/mL (≈ 0.0591 µM); in the experiment on M. avium hominissuis (read-out: MIC (µg/mL) / EPT) it was 2.7 µg/mL (≈ 11.4 µM); in the experiment on M. tuberculosis Erdman (read-out: MIC (µg/mL) / EPT), 0.19 µg/mL (≈ 0.801 µM); in the experiment on C. glutamicum (read-out: MIC (µg/mL) / EPT), 2 µg/mL (≈ 8.44 µM); with P. aeruginosa (read-out: MIC (µg/mL) / EPT), above 2.7 µg/mL; with E. coli (read-out: MIC (µg/mL) / EPT), 5.7 µg/mL (≈ 24 µM). Further, the MIC in the experiment on B. cereus (read-out: MIC (µg/mL) / EPT) is above 2.7 µg/mL; in the experiment with M. avium intracellulaire (read-out: MIC (µg/mL) / EPT), 2.7 µg/mL (≈ 11.4 µM); in the experiment on M. tuberculosis H37Rv (read-out: MIC (µg/mL) / EPT) it was 0.46 µg/mL (≈ 1.94 µM); in the experiment on M. abscessus (read-out: MIC (µg/mL) / EPT) it was 0.063 µg/mL (≈ 0.266 µM).
